Results as given in ChEMBL document CHEMBL6078622, “Enhancing outer membrane permeability of tetracycline antibiotics in P. aeruginosa using TOB-CIP conjugates” (RSC Med Chem, 2024).
The source made the active and inactive calls. The rule behind the calls is not given here.

Tests used:
Pseudomonas aeruginosa [1] = experiment: Antibacterial activity against Pseudomonas aeruginosa PAO1 assessed as inhibition of visible bacterial growth by CLSI based broth-microdilution method; format: functional
Pseudomonas aeruginosa [2] = experiment: Synergistic antibacterial activity against Pseudomonas aeruginosa PA259 in presence of minocycline by checkerboard assay; format: functional
Pseudomonas aeruginosa [3] = experiment: Synergistic antibacterial activity against Pseudomonas aeruginosa PA259 in presence of tigecycline by checkerboard assay; format: functional
Pseudomonas aeruginosa [4] = experiment: Synergistic antibacterial activity against Pseudomonas aeruginosa PA264 in presence of eravacycline by checkerboard assay; format: functional
Pseudomonas aeruginosa [5] = experiment: Synergistic antibacterial activity against Pseudomonas aeruginosa PA100036 in presence of minocycline by checkerboard assay; format: functional
Pseudomonas aeruginosa [6] = experiment: Synergistic antibacterial activity against Pseudomonas aeruginosa PA100036 in presence of eravacycline by checkerboard assay; format: functional
Pseudomonas aeruginosa [7] = experiment: Synergistic antibacterial activity against Pseudomonas aeruginosa PA101243 in presence of tigecycline by checkerboard assay; format: functional
Pseudomonas aeruginosa [8] = experiment: Synergistic antibacterial activity against Pseudomonas aeruginosa PA095 in presence of tigecycline by checkerboard assay; format: functional
Pseudomonas aeruginosa [9] = experiment: Synergistic antibacterial activity against Pseudomonas aeruginosa PA200 in presence of eravacycline by checkerboard assay; format: functional
Pseudomonas aeruginosa [10] = experiment: Antibacterial activity against Pseudomonas aeruginosa PA262 assessed as eravacycline MIC by CLSI based broth-microdilution method; format: functional
Pseudomonas aeruginosa [11] = experiment: Antibacterial activity against Pseudomonas aeruginosa PA114228 assessed as minocycline MIC by CLSI based broth-microdilution method; format: functional
Pseudomonas aeruginosa [12] = experiment: Antibacterial activity against Pseudomonas aeruginosa PA114228 assessed as doxycycline MIC by CLSI based broth-microdilution method; format: functional
Pseudomonas aeruginosa [13] = experiment: Antibacterial activity against Pseudomonas aeruginosa PA114228 assessed as tigecycline MIC by CLSI based broth-microdilution method; format: functional
Pseudomonas aeruginosa [14] = experiment: Antibacterial activity against Pseudomonas aeruginosa PA114228 assessed as eravacycline MIC by CLSI based broth-microdilution method; format: functional
Pseudomonas aeruginosa [15] = experiment: Antibacterial activity against Pseudomonas aeruginosa PA101243 assessed as minocycline MIC by CLSI based broth-microdilution method; format: functional
Pseudomonas aeruginosa [16] = experiment: Antibacterial activity against Pseudomonas aeruginosa PA101243 assessed as doxycycline MIC by CLSI based broth-microdilution method; format: functional
Pseudomonas aeruginosa [17] = experiment: Antibacterial activity against Pseudomonas aeruginosa PA101243 assessed as eravacycline MIC by CLSI based broth-microdilution method; format: functional
Pseudomonas aeruginosa [18] = experiment: Antibacterial activity against Pseudomonas aeruginosa PA095 assessed as tigecycline MIC by CLSI based broth-microdilution method; format: functional
Pseudomonas aeruginosa [19] = experiment: Antibacterial activity against Pseudomonas aeruginosa PA200 assessed as doxycycline MIC by CLSI based broth-microdilution method; format: functional
Pseudomonas aeruginosa [20] = experiment: Synergistic antibacterial activity against Pseudomonas aeruginosa PA259 assessed as fractional inhibitory concentration index in presence of minocycline by checkerboard assay; format: functional
Pseudomonas aeruginosa [21] = experiment: Synergistic antibacterial activity against Pseudomonas aeruginosa PA259 assessed as fractional inhibitory concentration index in presence of eravacycline by checkerboard assay; format: functional
Pseudomonas aeruginosa [22] = experiment: Synergistic antibacterial activity against Pseudomonas aeruginosa PA262 assessed as fractional inhibitory concentration index in presence of doxycycline by checkerboard assay; format: functional
Pseudomonas aeruginosa [23] = experiment: Synergistic antibacterial activity against Pseudomonas aeruginosa PA264 assessed as fractional inhibitory concentration index in presence of eravacycline by checkerboard assay; format: functional
Pseudomonas aeruginosa [24] = experiment: Synergistic antibacterial activity against Pseudomonas aeruginosa PA100036 assessed as fractional inhibitory concentration index in presence of tigecycline by checkerboard assay; format: functional
Pseudomonas aeruginosa [25] = experiment: Synergistic antibacterial activity against Pseudomonas aeruginosa PA100036 assessed as fractional inhibitory concentration index in presence of eravacycline by checkerboard assay; format: functional
Pseudomonas aeruginosa [26] = experiment: Synergistic antibacterial activity against Pseudomonas aeruginosa PA114228 assessed as fractional inhibitory concentration index in presence of minocycline by checkerboard assay; format: functional
Pseudomonas aeruginosa [27] = experiment: Synergistic antibacterial activity against Pseudomonas aeruginosa PA114228 assessed as fractional inhibitory concentration index in presence of tigecycline by checkerboard assay; format: functional
Pseudomonas aeruginosa [28] = experiment: Synergistic antibacterial activity against Pseudomonas aeruginosa PA114228 assessed as fractional inhibitory concentration index in presence of eravacycline by checkerboard assay; format: functional
Pseudomonas aeruginosa [29] = experiment: Synergistic antibacterial activity against Pseudomonas aeruginosa PA101243 assessed as fractional inhibitory concentration index in presence of doxycycline by checkerboard assay; format: functional
Pseudomonas aeruginosa [30] = experiment: Synergistic antibacterial activity against Pseudomonas aeruginosa PA095 assessed as fractional inhibitory concentration index in presence of doxycycline by checkerboard assay; format: functional
Pseudomonas aeruginosa [31] = experiment: Synergistic antibacterial activity against Pseudomonas aeruginosa PA200 assessed as fractional inhibitory concentration index in presence of minocycline by checkerboard assay; format: functional
Pseudomonas aeruginosa [32] = experiment: Synergistic antibacterial activity against Pseudomonas aeruginosa PA259 assessed as fold change in doxycycline MIC by CLSI based broth-microdilution method relative to doxycycline alone; format: functional
Pseudomonas aeruginosa [33] = experiment: Synergistic antibacterial activity against Pseudomonas aeruginosa PA264 assessed as fold change in doxycycline MIC by CLSI based broth-microdilution method relative to doxycycline alone; format: functional
Pseudomonas aeruginosa [34] = experiment: Synergistic antibacterial activity against Pseudomonas aeruginosa PA114228 assessed as fold change in minocycline MIC by CLSI based broth-microdilution method relative to minocycline alone; format: functional
Pseudomonas aeruginosa [35] = experiment: Synergistic antibacterial activity against Pseudomonas aeruginosa PA114228 assessed as fold change in eravacycline MIC by CLSI based broth-microdilution method relative to eravacycline alone; format: functional
Pseudomonas aeruginosa [36] = experiment: Synergistic antibacterial activity against Pseudomonas aeruginosa PA101243 assessed as fold change in minocycline MIC by CLSI based broth-microdilution method relative to minocycline alone; format: functional
Pseudomonas aeruginosa [37] = experiment: Synergistic antibacterial activity against Pseudomonas aeruginosa PA101243 assessed as fold change in eravacycline MIC by CLSI based broth-microdilution method relative to eravacycline alone; format: functional
Pseudomonas aeruginosa [38] = experiment: Synergistic antibacterial activity against Pseudomonas aeruginosa PA200 assessed as fold change in tigecycline MIC by CLSI based broth-microdilution method relative to tigecycline alone; format: functional
Pseudomonas aeruginosa [39] = experiment: Antibacterial activity against Pseudomonas aeruginosa PAO1 assessed as inhibition of bacterial growth by measuring fold change in MIC in presence of 5 % fetal bovine serum by CLSI protocol based assay; format: functional
Pseudomonas aeruginosa [40] = experiment: Antibacterial activity against Pseudomonas aeruginosa PAO1 assessed as inhibition of bacterial growth by measuring fold change in MIC in presence of 10 % fetal bovine serum by CLSI protocol based assay; format: functional
Pseudomonas aeruginosa [41] = experiment: Antibacterial activity against Pseudomonas aeruginosa PAO1 assessed as inhibition of bacterial growth by measuring fold change in MIC in presence of 25 % fetal bovine serum by CLSI protocol based assay; format: functional
Pseudomonas aeruginosa [42] = experiment: Antibacterial activity against Pseudomonas aeruginosa PA259 assessed as increase in bacterial load in presence of eravacycline by time kill assay; format: functional, organism-based
Pseudomonas aeruginosa [43] = experiment: Antibacterial activity against Pseudomonas aeruginosa PA264 assessed as increase in bacterial load incubated for 2 hrs in presence of eravacycline by time kill assay; format: functional, organism-based
HEK293 [44] = experiment: Cytotoxicity against HEK293 cells assessed as reduction in cell viability at 7 uM; format: toxicity, cell-based; details: human, hek293, 7 µM
HEK293 [45] = experiment: Cytotoxicity against HEK293 cells assessed as reduction in cell viability at 162 uM; format: toxicity, cell-based; details: human, hek293, 162 µM

Compound: Cl.Cl.Cl.Cl.Cl.Cl.NC[C@H]1O[C@H](O[C@H]2[C@H](OCCCCCCCCCCCCNC(=O)c3cn(C4CC4)c4cc(N5CCNCC5)c(F)cc4c3=O)[C@@H](O[C@H]3O[C@H](CO)[C@@H](O)[C@H](N)[C@H]3O)[C@H](N)C[C@@H]2N)[C@H](N)C[C@@H]1O
- MIC (Pseudomonas aeruginosa [1]): > 128 µg/mL
- MIC (Pseudomonas aeruginosa [2]): 8 µg/mL
- MIC (Pseudomonas aeruginosa [3]): 8 µg/mL
- MIC (Pseudomonas aeruginosa [4]): 8 µg/mL
- MIC (Pseudomonas aeruginosa [5]): 8 µg/mL
- MIC (Pseudomonas aeruginosa [6]): 8 µg/mL
- MIC (Pseudomonas aeruginosa [7]): 8 µg/mL
- MIC (Pseudomonas aeruginosa [8]): 2 µg/mL
- MIC (Pseudomonas aeruginosa [9]): 8 µg/mL
- MIC (Pseudomonas aeruginosa [10]): 1 µg/mL
- MIC (Pseudomonas aeruginosa [11]): 64 µg/mL
- MIC (Pseudomonas aeruginosa [12]): 32 µg/mL
- MIC (Pseudomonas aeruginosa [13]): 16 µg/mL
- MIC (Pseudomonas aeruginosa [14]): 4 µg/mL
- MIC (Pseudomonas aeruginosa [15]): 2 µg/mL
- MIC (Pseudomonas aeruginosa [16]): 1 µg/mL
- MIC (Pseudomonas aeruginosa [17]): 2 µg/mL
- MIC (Pseudomonas aeruginosa [18]): 2 µg/mL
- MIC (Pseudomonas aeruginosa [19]): 2 µg/mL
- fractional inhibitory concentration index (FICI) (Pseudomonas aeruginosa [20]): 0.002
- fractional inhibitory concentration index (FICI) (Pseudomonas aeruginosa [21]): 0.008
- fractional inhibitory concentration index (FICI) (Pseudomonas aeruginosa [22]): 0.002
- fractional inhibitory concentration index (FICI) (Pseudomonas aeruginosa [23]): 0.008
- fractional inhibitory concentration index (FICI) (Pseudomonas aeruginosa [24]): 0.002
- fractional inhibitory concentration index (FICI) (Pseudomonas aeruginosa [25]): 0.008
- fractional inhibitory concentration index (FICI) (Pseudomonas aeruginosa [26]): 0.008
- fractional inhibitory concentration index (FICI) (Pseudomonas aeruginosa [27]): 0.25
- fractional inhibitory concentration index (FICI) (Pseudomonas aeruginosa [28]): 0.5
- fractional inhibitory concentration index (FICI) (Pseudomonas aeruginosa [29]): 0.25
- fractional inhibitory concentration index (FICI) (Pseudomonas aeruginosa [30]): 0.25
- fractional inhibitory concentration index (FICI) (Pseudomonas aeruginosa [31]): 0.312
- fold change (FC) (Pseudomonas aeruginosa [32]): 128
- fold change (FC) (Pseudomonas aeruginosa [33]): 16
- fold change (FC) (Pseudomonas aeruginosa [34]): 512
- fold change (FC) (Pseudomonas aeruginosa [35]): 256
- fold change (FC) (Pseudomonas aeruginosa [36]): 4
- fold change (FC) (Pseudomonas aeruginosa [37]): 4
- fold change (FC) (Pseudomonas aeruginosa [38]): 16
- fold change (FC) (Pseudomonas aeruginosa [39]): >128
- fold change (FC) (Pseudomonas aeruginosa [40]): >512
- fold change (FC) (Pseudomonas aeruginosa [41]): 128
- Activity (Pseudomonas aeruginosa [42]): Active
- Activity (Pseudomonas aeruginosa [43]): Active
- Activity (HEK293 [44]): Non-toxic
- Activity (HEK293 [45]): 60%
